# Reference: article PMC8165606, “Effects of Natural Monoamine Oxidase Inhibitors on Anxiety-Like Behavior in Zebrafish” (Frontiers in Pharmacology, 2021)
# Counter-ions that a name gives are not always drawn. Like-named read-outs stand apart in the source and are kept apart here.
# Key:
# zebrafish = conditions: for NTT time spent at the top and bottom: 20 min treatment, 5 min test
# Description: Adult male and female wild-type zebrafish were treated with the compounds for 20 min in a final volume of 50 ml in a 250-ml treatment beaker, one fish at a time. […] If not, the concentration was reduced until no obvious signs of tolerability problems (e.g., seizure-like tail or body movement) were observed.
# Following compound treatment in a 250 ml beaker, the fish were briefly rinsed in fresh system water, and then immediately transferred to a trapezoidal tank (14.6 cm height x 5.5 cm width x 27.9 cm top length and x 23.6 cm bottom length) filled with 1.5 L system water (Figure 1B). The behavior of the fish was monitored for the next 5 min by using the Noldus EthoVision XT system (Wageningen, Netherlands), with the camera placed approximately 1 m from the test tank (Figure 1C). The water-filled part of the tank (11.5 cm height) was virtually divided into top, center, and bottom (Figure 1B). The average time spent at the top and bottom portions of the tank was analyzed to determine the anxiety-like behavior of fish. […] The experimenters were blind to the test conditions. A minimum of 12 fish (6 females and 6 males) per condition were used for the study.
# The behavioral findings were analyzed in 1 min bins using two-way repeated measures ANOVA with Dunnett post hoc analysis. The analyses were conducted by using GraphPad Prism v8.2.1 (GraphPad Software, San Diego, CA, United States).
# MAO-A and MAO-B [1] = tested on: MAO-A and MAO-B; design: method as in Fisar et al., 2010; conditions: crude pig brain mitochondrial fractions ref Fisar et al., 2010; cited from earlier work
# MAO-A and MAO-B [2] = conditions: cited from earlier work
# MAO A = target: T1, MAO A (Homo sapiens, UniProt P21397); test: MAO-Glo two-step bioluminescent assay, MAO A; type: biochemical; conditions: for Selectivity between MAO A and B: present study
# T1 sequence (P21397 1-527): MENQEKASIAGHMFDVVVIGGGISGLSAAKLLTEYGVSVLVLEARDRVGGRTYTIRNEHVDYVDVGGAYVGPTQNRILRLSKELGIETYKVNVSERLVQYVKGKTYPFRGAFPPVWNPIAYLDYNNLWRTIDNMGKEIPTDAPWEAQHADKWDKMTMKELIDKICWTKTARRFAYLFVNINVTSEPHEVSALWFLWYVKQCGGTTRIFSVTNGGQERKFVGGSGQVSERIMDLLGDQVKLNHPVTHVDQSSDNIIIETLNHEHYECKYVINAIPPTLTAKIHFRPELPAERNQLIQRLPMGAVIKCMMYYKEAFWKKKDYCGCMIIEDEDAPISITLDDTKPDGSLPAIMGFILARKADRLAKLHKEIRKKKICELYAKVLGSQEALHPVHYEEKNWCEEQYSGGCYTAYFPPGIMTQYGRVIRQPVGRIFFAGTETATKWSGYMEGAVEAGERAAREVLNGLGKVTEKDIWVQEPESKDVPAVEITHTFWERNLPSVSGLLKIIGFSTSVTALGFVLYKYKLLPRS
# Description: (§1) Fluostar Omega 96 Microplate reader (BMG LABTECH GmbH, Ortenberg, Germany) was used to measure the luminescent signal and to determine the IC50 (half maximal inhibitory concentration).
# MAO B = target: T2, MAO B (Homo sapiens, UniProt P27338); test: MAO-Glo two-step bioluminescent assay, MAO B; type: biochemical; conditions: mean ± SEM; substrate 3 µM
# T2 sequence (P27338 1-520): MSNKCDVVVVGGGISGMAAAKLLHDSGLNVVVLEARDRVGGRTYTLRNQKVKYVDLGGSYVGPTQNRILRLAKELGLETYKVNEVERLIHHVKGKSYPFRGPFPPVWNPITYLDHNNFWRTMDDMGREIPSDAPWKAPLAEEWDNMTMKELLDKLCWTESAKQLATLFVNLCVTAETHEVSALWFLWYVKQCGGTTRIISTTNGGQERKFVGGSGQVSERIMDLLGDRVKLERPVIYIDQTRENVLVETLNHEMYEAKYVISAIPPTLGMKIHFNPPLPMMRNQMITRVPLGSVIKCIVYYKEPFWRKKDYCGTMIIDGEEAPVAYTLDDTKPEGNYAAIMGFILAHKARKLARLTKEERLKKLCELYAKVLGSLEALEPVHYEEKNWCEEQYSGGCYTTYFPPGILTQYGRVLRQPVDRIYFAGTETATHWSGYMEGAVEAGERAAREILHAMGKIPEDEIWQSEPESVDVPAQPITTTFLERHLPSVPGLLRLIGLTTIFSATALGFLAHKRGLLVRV
# Description: as §1
# serotonin receptor = test: Pilot in vitro serotonin receptor binding (data not shown); conditions: pilot study in vitro
# [3] = tested on: norepinephrine transporter; test: Pilot in vitro norepinephrine transporter binding (data not shown); conditions: pilot study in vitro
# zebrafish brain = test: Ex vivo bioavailability assay in fish brain (UPLC-HRMS or GC/MS); conditions: relative brain level per 1 mg/L
# Description: The fish were decapitated at the level of the gills by using a surgical knife. The head was turned dorsal side down, and, soft tissue was removed from the ventral side of the skull using two forceps until the base of the skull was exposed. The skull was broken open, and the bone from the ventral side of the brain was removed. The brain was then placed in a microcentrifuge tube, weighed, snap-frozen in liquid nitrogen, and stored at −80°C until the analysis.
# Briefly, on the day of analysis, the brain samples were defrosted, resuspended in a methanol solution (2:1 [v/v] methanol:MilliQ water), and homogenized with vigorous agitation and ultrasonication (5 min each). The homogenate was centrifuged at 15,000 x rpm for 10 min, and the supernatant was analyzed by using a UPLC-Q Exactive Orbitrap-HRMS system (Thermo Fisher Scientific™, Bremen, Germany) for all compounds except for TMN, which was analyzed by gas chromatography/mass spectrometry (GC/MS) system. Chromatographic separation was achieved on a Synergi™ 4-µm Hydro-RP 80 Å, L.C. […]
# For TMN, the Agilent GC/MS system (Agilent, Santa Clara, CA, United States) was used, because it is an apolar aromatic compound that could not be ionized for the detection by the UPLC-Q Exactive Orbitrap-HRMS system. […] The results were quantified using Agilent MS Workstation software (v6.9.3).
# [4] = two highest concentrations tested
# [5] = all concentrations tested, throughout the test period
compound,measurement,setting,value
"C#CCN(C)CCCOc1ccc(Cl)cc1Cl [Clorgyline, clorgyline hydrochloride, reference compound]",NTT time spent at the top and bottom,zebrafish; 10 mg/L,no effect
same,NTT time spent at the top and bottom,zebrafish; 30 mg/L,significantly increasing it only during the last 2 min
same,NTT time spent at the top and bottom,zebrafish; 100 mg/L,increasing the time spent at the top for almost the entire test period
same,NTT total distance traveled,zebrafish; [4],significantly reduced
same,Tolerability in zebrafish,"zebrafish; zebrafish, in vivo",borderline of tolerability
"C#CCN(C)Cc1ccccc1 [Pargyline, pargyline hydrochloride]",NTT time spent at the top and bottom,zebrafish; 10 mg/L,"only an anxiogenic-like effect, but only for the first 1 min of the test"
same,NTT total distance traveled,zebrafish; [4],significantly reduced
same,Difference between the Ki values of MAO-A and MAO-B,MAO-A and MAO-B [1],1.4 fold
same,Difference in Ki values of MAO-A and MAO-B,"MAO-A and MAO-B [2]; recombinant human enzymes ref Oh et al., 2020",> 100 fold
same,Difference in Ki values of MAO-A and MAO-B,"MAO-A and MAO-B [2]; recombinant human enzymes ref Takao et al., 2019",21 fold
"c1ccc2c(c1)CCNC2 [TIQ, 1,2,3,4-tetrahydroisoquinoline]",NTT time spent at the top and bottom,zebrafish; 10 mg/L,no effect
same,NTT time spent at the top and bottom,zebrafish; 30 mg/L,"generally increased and decreased the time spent at the top and bottom, respectively"
same,NTT time spent at the top and bottom,zebrafish; 100 mg/L,"generally increased and decreased the time spent at the top and bottom, respectively"
same,Effect on general movement in NTT,"zebrafish; 10, 30 and 100 mg/L",no observable effect on general movement
"O=C1CC2(CCCC2)CC(=O)N1CCCCN1CCN(c2ncccn2)CC1 [buspirone, Buspirone hydrochloride, reference compound]","NTT time spent at the top and bottom, treatment effect","zebrafish; 10, 30 and 100 mg/L, two-way ANOVA",significant treatment effect
same,Tolerability in zebrafish,"zebrafish; zebrafish, in vivo",borderline of tolerability
"CC1=C(C)C(=O)c2cc(C)ccc2C1=O [TMN, 2,3,6-trimethyl-1,4-naphtoquinone]",IC50,"MAO A; mean ± SEM, substrate 20 µM, read-out: MAO a IC50",1140 ± 740 nM
same,Selectivity between MAO A and B,MAO A,no selectivity
same,IC50,MAO B,7140 ± 2290 nM
same,NTT time spent at the top and bottom,zebrafish; 10 mg/L,only an anxiogenic-like effect during the last couple of minutes
same,NTT time spent at the top and bottom,zebrafish; 30 mg/L,mix of both anxiolytic- and anxiogenic-like behaviors
same,NTT total distance traveled,zebrafish; [5],significantly reduced
same,Tolerability in zebrafish,"zebrafish; highest concentrations tested, relatively high number of fish with long freezing",borderline of tolerability
same,NTT freezing time,zebrafish; [4],increased the freezing time
Cc1nccc2c1[nH]c1ccccc12 [Harmane],IC50,MAO A,50 ± 30 nM
same,MAO-A selectivity over MAO-B,MAO A; from IC50 values,"> 2,000 fold"
same,Selectivity between MAO A and B,MAO A,only MAO A selective inhibitor
same,IC50,MAO B,> 100000 nM
same,NTT time spent at the top and bottom,zebrafish; 1 mg/L,increased the time spent at the top and decreased the time spent at the bottom during the first minute
same,NTT time spent at the top and bottom,zebrafish; 3 mg/L,increased the time spent at the top and decreased the time spent at the bottom during the first minute
same,NTT time spent at the top and bottom,zebrafish; 10 mg/L,no effect
same,NTT total distance traveled,zebrafish; [5],significantly reduced
same,NTT freezing time,zebrafish; highest concentration tested,increased the freezing time during the first 2 min
same,Serotonin receptor binding activity,serotonin receptor,~10 µM
same,Norepinephrine transporter binding activity,[3],~10 µM
same,Brain level relative to the rest of compounds tested,zebrafish brain,approximately 10 fold
"c1ccc2c(c1)[nH]c1cnccc12 [Norharmane, norharmane]",NTT time spent at the top and bottom,zebrafish; 0.3 mg/L,no effect
same,NTT time spent at the top and bottom,zebrafish; 1 mg/L,significant effect between 2 and 3 min of the test
same,NTT time spent at the top and bottom,zebrafish; 3 mg/L,increased the time spent at the top and decreased the time spent at the bottom during the last 2 min
same,NTT total distance traveled,zebrafish; highest concentration tested,significantly reduced
same,Serotonin receptor binding activity,serotonin receptor,~10 µM
same,Norepinephrine transporter binding activity,[3],~10 µM
